Data published in publication PMC6272399, “Anti-Proliferative Effect and Induction of Apoptosis in Androgen-Independent Human Prostate Cancer Cells by 1,5-Bis(2-hydroxyphenyl)-1,4-pentadiene-3-one” (Molecules, 2015).
Entries after “also recorded” stand apart in the source; their conditions may differ.

Key:
Format in all cases: cell-based, human
[1] = test system: PC-3 cells; test: BrdU cell proliferation assay, PC-3; details: PC-3, BrdU
Experimental: (§1) The anti-proliferative effects of compound on treated cells, was measured using the BrdU cell proliferation assay kit (Roche Applied Science Diagnostics, Indianapolis, IN, USA) according to the manufacturer’s protocol. The assay was based on incorporation of BrdU during DNA synthesis in proliferating cells. Cells were plated at a concentration of 10^4 cells/mL in a 96-well microtiter plate and incubated overnight. The cells were treated with compounds and curcumin (concentrations ranging from 1.56 µM–100 µM) as positive control for 24, 48 and 72 h respectively. Then, BrdU labeling solution (5 µL, diluted by 1/100 in culture media) was added to each well and incubated for 2 h at 37 °C. The media was replaced with fix/denaturing solution (100 µL) and incubated for 30 min at room temperature. Then, the fix/denaturing solution was removed by tapping off and followed by addition of 50 µL anti-BrdU antibody (50 µL, diluted by 1/100 in dilution buffer) to each well and further incubated for another 90 min at room temperature. Next, the cells were washed 3 times with wash buffer and substrate solution (50 µL) was added to each well. The plate was left for 10 min at room temperature in the dark and the absorbance was measured at a wavelength of 370 nm with a reference wavelength of 492 nm using a micro-plate ELISA reader (Bio-Rad). The percentage of BrdU incorporation was determined based on the ratio of absorbance of sample treated-cells to absorbance of control (untreated cells/DMSO only) multiplied by 100.

[2] = test system: DU 145 cells; test: BrdU cell proliferation assay, DU 145; details: DU 145, BrdU
Experimental: as §1

[3] = test system: caspase-3 activity in DU 145 cells; test: Caspase-3 colorimetric activity assay, DU 145
Experimental: Caspase-3 activity was determined using the caspase-3 colorimetric assay kit (Sigma-Aldrich) according to manufacturer’s protocol. The assay is based on spectrophotometric detection of p-nitroanilide (pNA) a colored molecule, after its cleavage from the labeled substrate DEVD-pNA by the activity of caspase-3 enzyme. PC-3 and DU 145 cells were treated with MS17 at different concentrations (EC50, 2 × EC50, 3 × EC50) at various time points, 6, 12, 24, 48 and 72 h as appropriate. Following treatment, cells were washed with PBS and suspended with lysis buffer (50 mM HEPES, pH 7.4, 5 mM CHAPS, 5 mM DTT) for 30 min on ice at the concentration of 10^7 cells per 100 µL buffer. Cells were then spun for 30 min at 16,000× g, 4 °C. Protein lysate concentrations were measured based on the Bradford assay method using the Cayman Chemical protein determination kit (Cayman Chemical Company, Ann Arbor, MI, USA) based on the manufacturer’s protocol. Assay was performed on a 96-well micro-titer plate by adding equal amount of protein lysate (~100 µg) into wells containing the assay buffer (20 mM HEPES pH 7.4, 0.1% CHAPS, 5 mM DTT, 2 mM EDTA). Reaction was started by the addition of 10 µL of substrate Ac-DEVD-pNA (2 mM). The effect of Ac-DEVD-CHO, a caspase-3 inhibitor was also studied simultaneously on caspase-3 activity. Ten microliter of the inhibitor (200 µM) was added into the wells containing the protein lysate, assay buffer and the substrate. Caspase-3 activity was measured upon the release of pNA molecule, a pale yellow colored product using the micro-plate ELISA reader (Bio-Rad) at the wavelength of 405 nm. Relative caspase-3 activity was expressed as absorbance of enzyme activity compared with the control (untreated cells/DMSO only) based on the equation below: Relative caspase 3 activity= Absorbance of treated cells /Absorbance of control

[4] = test system: PC-3 cells; test: Free nucleosome detection (Cell Death Detection ELISA), PC-3; details: PC-3, 9.0 and 13.5 µM, 24, 48 and 72 h
Experimental: To confirm the presence of histone-bound DNA fragments (free nucleosomes) in the prostate cancer cells after the treatment of MS17, Cell Death Detection ELISA^PLUS kit (Roche Diagnostics) was used according to the manufacturer’s protocol. Cells were plated on a bottom flat tissue culture plates at a concentration of 10^5 cells per well and incubated for 24 h to allow the cells to adhere. After overnight incubation, MS17 at various concentrations (EC50, 2 × EC50, 3 × EC50) were added to a final volume of 100 µL per well and further incubated for 24, 48 and 72 h. The plate was centrifuged at 600 rpm at 4 °C for 10 min. The cell pellet containing the apoptotic bodies was resuspended in lysis buffer and incubated for 30 min at room temperature. […] The amount of nucleosomes retained by the POD in the immunocomplex, corresponding to the extent of apoptosis and necrosis, was determined with 2,2'-azinobis-3-ethyl-benzothiazoline-6-sulfonic acid (ABTS) as substrate using a micro-plate ELISA reader at a wavelength of 405/490 nm. The amount of enrichment of mono- and oligonucleosomes released into the cytoplasm was calculated using the following formula: Enrichment factor= Absorbance of sample/Absorbance of control

## O=C(C=Cc1ccccc1O)C=Cc1ccccc1O [MS17, 1,5-bis(2-hydroxyphenyl)-1,4-pentadiene-3-one]
[1]; 24 h
  concentration from which anti-proliferative activity is significant: 6.3 µM
[1]; 48 h
  concentration from which anti-proliferative activity is significant: 12.5 µM
[1]; 72 h
  concentration from which anti-proliferative activity is significant: 12.5 µM
[2]; 24 h
  concentration from which anti-proliferative activity is significant: 6.3 µM
[2]; 48 h
  concentration from which anti-proliferative activity is significant: 6.3 µM
[2]; 72 h
  concentration from which anti-proliferative activity is significant: 12.5 µM
[3]; DU 145, 6, 24, 48 and 72 h
  relative caspase-3 activity, differences between concentrations: no significant differences of caspase-3 activity
[3]; DU 145, 12 h, significant at 8.4 and 12.6 µM compared to 4.2 µM
  relative caspase-3 activity (treated vs untreated): increased significantly; also recorded: increase in caspase-3 activity
[4]
  nucleosomal fragments (enrichment factor): significant increase in nucleosomal fragments
